# Literature values in US20160199460A1, “COMPOSITIONS FOR REDUCING THE DELETERIOUS EFFECTS OF STRESS AND AGING” (HydroPep, LLC, priority 2010, published 2016).
# System: aging individuals (>50 years of age)
# Conditions: oral D-ribose; aging individuals (>50 years of age) with tiredness for at least one month
smiles,measurement,value
O=C[C@H](O)[C@H](O)[C@H](O)CO [D-ribose],Physical fatigue and mental outlook,lessening physical fatigue
